System: Human neuroblastoma SK-N-SH cells
Assay: Cytoprotection in human neuroblastoma SK-N-SH cells against a PI-3-kinase inhibitor, LY-294002
Assay type: cell-based
Details: test compound 1.0 μM with LY-294002 30 μM; survival by Alamarblue reduction one day after initiation; (A−B)/(C−B)×100
Procedure: Cytoprotection in human neuroblastoma SK-N-SH cells against a PI-3-kinase inhibitor, LY-294002
Human neuroblastoma SK-N-SH cells were purchased from American Type Cell Culture (ATCC). DMEM/F-12 culture medium and potassium/magnesium-free phosphate buffer saline (PBS(−)) were purchased from Nikken Biomedical Co., Ltd., N2 additives and EDTA solution from GIBCO BRL Company, fetal bovine serum (FCS) and a mixed solution of penicillin (5000 U/ml) and streptomycin (5 mg/ml) from BioWhittaker Inc., Alamarblue™ reagent from Wako Pure Chemical Industries Ltd., culture flasks from Falcon Company, collagen-coated 96-well multi-plates from Iwaki Glass Co., Ltd., and LY-294002 from Alexis Biochemicals, respectively. As for other reagents, commercially available guaranteed reagents were used.
By using DMEM/F-12 culture medium which contains 5% FCS, 0.5% N2, 10 mM HEPES, and a 1% mixed solution of penicillin (5000 U/ml) and streptomycin (5 mg/ml), SK-N-SH cells were subcultured in a carbon dioxide incubator under a mixed gas atmosphere consisting of 10% carbon dioxide and 90% air. After being cultivated to a sub-confluent stage, the cells were detached by a PBS(−) solution containing 2.5 mM EDTA and seeded onto collagen-coated 96-well multi-plates in the proportion of 1.0×10^4 cells/100 μl/well. After cultivation for 24 hours, the cells thus prepared were used for the cytoprotection assay.
(§1) There was removed 80 μl of the culture medium of SK-N-SH cells that was cultivated as described above on 96-wells, collagen-coated, multi-plates and thereto were added at the same time 40 μl each of LY-294002 of the final concentrations of 30 μM and each test compound the final concentrations of that was adjusted to be 1.0 μM, to initiate the cytotoxicity test. Hereupon, each test compound was used after adjusting the concentration to be 10 mM with dimethyl sulfoxide and LY-294002 was used after adjusting the concentration to be 100 mM with dimethyl sulfoxide, each of which was diluted prior to its use in the test.
The survival activity of nerve cells that were still living one day after initiation of the cytotoxicity test was determined by the activity of the cells to reduce the Alamarblue™ reagent as an index. There was removed 20 μl of the culture medium and 20 μl of Alamarblue™ reagent was added. The amount of Alamarblue™ reagent reduced by the cells over the period of 4 hours was calorimetrically determined (measurement wave length: 570 nm; reference wave length: 600 nm) By using a plate reader (WAKO SPECTRAMAX 250 Microplate Reader). Cytoprotection activity was calculated according to the following equation. Cytoprotection activity of each compound=(A−B)/(C−B)×100(%) • A: The survival activity of the group consisting of a test compound and LY-294002 added • B: The survival activity of the group consisting of LY-294002 added • C: The survival activity of the control group
The cytoprotection activity of each compound was obtained By using at least 4 wells for every dose of a test compound.
Cytoprotection in Human Neuroblastoma SK-N-SH Cells Against a PI-3-kinase Inhibitor, LY-294002
as §1, with “cytotoxicity assay.” for “cytotoxicity test.”
The survival activity of nerve cells that were still living one day after initiation of the cytotoxicity test was determined by the activity of the cells to reduce the Alamarblue™ reagent as an index. […]

SMILES: COc1cc2c(cc1OC)CN(c1c(C)c(C)c3c(c1C)C(c1ccc(C)cc1)C(C)(C)O3)C2 (stereo not shown) [Example 6a, 5,6-dimethoxy-2-[2,2,4,6,7-pentamethyl-3-(4-methylphenyl)-2,3-dihydro-1-benzofuran-5-yl]isoindoline]
- Cytoprotection Activity (%): 28.2%

SMILES: COc1ccc(C(=O)Nc2c(C)c(C)c3c(c2C)C(c2ccc(C(C)C)cc2)C2(CCN(C)CC2)O3)cc1 (stereo not shown) [Example 52b, N-[3-(4-Isopropylphenyl)-1′,4,6,7-tetramethylspiro[benzofuran-2(3H),4′-piperidine]-5-yl]-4-methoxybenzamide]
- Cytoprotection Activity (%): 16.4%

SMILES: Cc1c(C)c2c(c(C)c1NC(=O)c1ccc(Cl)cc1)C(c1ccc(C(C)C)cc1)C(C)(C)O2 (stereo not shown) [Example 20b, 4-Chloro-N-[3-(4-isopropylphenyl)-2,2,4,6,7-pentamethyl-2,3-dihydro-1-benzofuran-5-yl]benzamide]
- Cytoprotection Activity (%): 12.6%

SMILES: Cc1c(C)c2c(c(C)c1NC(=O)c1cccs1)C(c1ccc(C(C)C)cc1)C(C)(C)O2 (stereo not shown) [Example 24b, N-[3-(4-Isopropylphenyl)-2,2,4,6,7-pentamethyl-2,3-dihydro-1-benzofuran-5-yl]-2-thiophenecarboxamide]
- Cytoprotection Activity (%): 16.4%

SMILES: Cc1ccc(C2c3c(C)c(-n4cc5cc6c(cc5c4)OCO6)c(C)c(C)c3OC2(C)C)cc1 (stereo not shown) [Example 14a, 6-[2,2,4,6,7-pentamethyl-3-(4-methylphenyl)-2,3-dihydro-1-benzofuran-5-yl]-6H-[1,3]dioxolo[4,5-f]isoindole]
- Cytoprotection Activity (%): 26.6%

SMILES: Cc1c(C)c2c(c(C)c1NC(=O)c1ccc3c(c1)OCO3)C(c1ccc(C(C)C)cc1)C(C)(C)O2 (stereo not shown) [Example 22b, N-[3-(4-Isopropylphenyl)-2,2,4,6,7-pentamethyl-2,3-dihydro-1-benzofuran-5-yl]-1,3-benzodioxol-5-carboxamide]
- Cytoprotection Activity (%): 12.8%

SMILES: COc1ccc(CNc2c(C)c(C)c3oc(C)c(-c4ccc(C(C)C)cc4)c3c2C)cc1 [Example 45b, 3-(4-isopropylphenyl)-N-(4-methoxybenzyl)-2,4,6,7-tetramethyl-1-benzofuran-5-amine]
- Cytoprotection Activity (%): 20.6%

Reference: patent US7101867B2, “Benzofuran derivatives, their production and use” (Takeda Pharmaceutical Company Limited, priority 1998, dated 2006)
